# From patent US10954246B2, “Compound of EOC315 Mod.I crystal form and preparation method thereof” (Taizhou EOC Pharma Co., Ltd., priority 2017, dated 2021)
# Structures can show the parent of a compound that is named as a salt.
# Assay: Long-term stability study (25° C., RH 60%)
# Format: physicochemical
# Settings: for Related substance Impurity 5 / Related substance Impurity 6 / Related substance Maximum single impurity / Related substance Impurity 1 / Related substance Impurity 2 / Related substance Impurity 3 / Related substance Total impurity / Related substance Impurity 4 / Crystalline form: 25° C./RH 60%; for Related substance Impurity 5 / Related substance Impurity 6: limit 0.10%; for Related substance Maximum single impurity: limit 0.15%; for Related substance Impurity 1 / Related substance Impurity 2 / Related substance Impurity 3: limit 0.17%; for Related substance Total impurity: limit 1.0%; for Related substance Impurity 4: limit 3.0%; for Crystalline form: limit ModI
# Method: Long-term stability over twelve months was evaluated at 25° C. and a relative humidity of 60%; or accelerated stability over six months was evaluated at 40° C. and a relative humidity of 75%.
structure (smiles),measurement,setting,value
"CNC(=O)c1cc(OCc2nnc(Nc3ccc(Cl)cc3)c3ccoc23)ccn1 [EOC315 crystalline form Mod. I, 4-(4-chloroanilino)-7-(2-methylaminocarbonyl-4-oxymethyl)pyridylfuro[2,3-d]pyridazine mesylate]",Related substance Impurity 5,"Month 0, listed as 151211",0.02%
same,Related substance Impurity 6,"Month 0, listed as 151211",0.01%
same,Related substance Impurity 5,"Month 0, listed as 151212",0.01%
same,Related substance Impurity 6,"Month 0, listed as 151212",Undetected
same,Related substance Impurity 5,"Month 0, listed as 151213",Undetected
same,Related substance Impurity 6,"Month 0, listed as 151213",Undetected
same,Related substance Maximum single impurity,"Month 0, listed as 151211",0.0079%
same,Related substance Maximum single impurity,"Month 0, listed as 151212",0.012%
same,Related substance Maximum single impurity,"Month 0, listed as 151213",0.0085%
same,Related substance Impurity 1,Month 0,Undetected
same,Related substance Impurity 2,Month 0,Undetected
same,Related substance Impurity 3,"Month 0, listed as 151211",0.016%
same,Related substance Impurity 3,"Month 0, listed as 151212",0.011%
same,Related substance Impurity 3,"Month 0, listed as 151213",0.011%
same,Related substance Total impurity,"Month 0, listed as 151211",0.53%
same,Related substance Total impurity,"Month 0, listed as 151212",0.65%
same,Related substance Total impurity,"Month 0, listed as 151213",0.52%
same,Related substance Impurity 4,"Month 0, listed as 151211",0.36%
same,Related substance Impurity 4,"Month 0, listed as 151212",0.46%
same,Related substance Impurity 4,"Month 0, listed as 151213",0.35%
same,Crystalline form,Month 0,ModI
same,Related substance Impurity 6,Month 3,Undetected
same,Related substance Impurity 5,"Month 3, listed as 151211",0.01%
same,Related substance Impurity 5,"Month 3, listed as 151212",0.02%
same,Related substance Impurity 5,"Month 3, listed as 151213",0.01%
same,Related substance Maximum single impurity,Month 3,Undetected
same,Related substance Impurity 1,Month 3,Undetected
same,Related substance Impurity 2,Month 3,Undetected
same,Related substance Impurity 3,Month 3,Undetected
same,Related substance Total impurity,"Month 3, listed as 151211",0.5%
same,Related substance Total impurity,"Month 3, listed as 151212",0.6%
same,Related substance Total impurity,"Month 3, listed as 151213",0.5%
same,Related substance Impurity 4,"Month 3, listed as 151211",0.4%
same,Related substance Impurity 4,"Month 3, listed as 151212",0.5%
same,Related substance Impurity 4,"Month 3, listed as 151213",0.38%
same,Related substance Impurity 6,Month 6,0.01%
same,Related substance Impurity 5,"Month 6, listed as 151211",Undetected
same,Related substance Impurity 5,"Month 6, listed as 151212",0.02%
same,Related substance Impurity 5,"Month 6, listed as 151213",Undetected
same,Related substance Maximum single impurity,"Month 6, listed as 151211",0.013%
same,Related substance Maximum single impurity,"Month 6, listed as 151212",0.070%
same,Related substance Maximum single impurity,"Month 6, listed as 151213",0.016%
same,Related substance Impurity 1,Month 6,Undetected
same,Related substance Impurity 2,"Month 6, listed as 151211",0.0028%
same,Related substance Impurity 3,"Month 6, listed as 151211",0.099%
same,Related substance Impurity 2,"Month 6, listed as 151212",Undetected
same,Related substance Impurity 3,"Month 6, listed as 151212",0.031%
same,Related substance Impurity 2,"Month 6, listed as 151213",Undetected
same,Related substance Impurity 3,"Month 6, listed as 151213",0.033%
same,Related substance Total impurity,"Month 6, listed as 151211",0.73%
same,Related substance Total impurity,"Month 6, listed as 151212",0.88%
same,Related substance Total impurity,"Month 6, listed as 151213",0.63%
same,Related substance Impurity 4,"Month 6, listed as 151211",0.42%
same,Related substance Impurity 4,"Month 6, listed as 151212",0.54%
same,Related substance Impurity 4,"Month 6, listed as 151213",0.40%
same,Crystalline form,Month 6,ModI
same,Related substance Impurity 5,"Month 9, listed as 151211",0.02%
same,Related substance Impurity 6,"Month 9, listed as 151211",Undetected
same,Related substance Impurity 5,"Month 9, listed as 151212",0.01%
same,Related substance Impurity 6,"Month 9, listed as 151212",0.01%
same,Related substance Impurity 5,"Month 9, listed as 151213",Undetected
same,Related substance Impurity 6,"Month 9, listed as 151213",Undetected
same,Related substance Maximum single impurity,"Month 9, listed as 151211",0.013%
same,Related substance Maximum single impurity,"Month 9, listed as 151212",Undetected
same,Related substance Maximum single impurity,"Month 9, listed as 151213",Undetected
same,Related substance Impurity 1,Month 9,Undetected
same,Related substance Impurity 2,Month 9,Undetected
same,Related substance Impurity 3,Month 9,Undetected
same,Related substance Total impurity,"Month 9, listed as 151211",0.61%
same,Related substance Total impurity,"Month 9, listed as 151212",0.77%
same,Related substance Total impurity,"Month 9, listed as 151213",0.58%
same,Related substance Impurity 4,"Month 9, listed as 151211",0.43%
same,Related substance Impurity 4,"Month 9, listed as 151212",0.56%
same,Related substance Impurity 4,"Month 9, listed as 151213",0.42%
same,Related substance Impurity 5,"Month 12, listed as 151211",0.01%
same,Related substance Impurity 6,"Month 12, listed as 151211",0.03%
same,Related substance Impurity 5,"Month 12, listed as 151212",Undetected
same,Related substance Impurity 6,"Month 12, listed as 151212",0.02%
same,Related substance Impurity 5,"Month 12, listed as 151213",0.01%
same,Related substance Impurity 6,"Month 12, listed as 151213",Undetected
same,Related substance Maximum single impurity,Month 12,Undetected
same,Related substance Impurity 1,Month 12,Undetected
same,Related substance Impurity 2,Month 12,Undetected
same,Related substance Impurity 3,Month 12,Undetected
same,Related substance Total impurity,"Month 12, listed as 151211",0.63%
same,Related substance Total impurity,"Month 12, listed as 151212",0.80%
same,Related substance Total impurity,"Month 12, listed as 151213",0.58%
same,Related substance Impurity 4,"Month 12, listed as 151211",0.46%
same,Related substance Impurity 4,"Month 12, listed as 151212",0.58%
same,Related substance Impurity 4,"Month 12, listed as 151213",0.42%
same,Crystalline form,Month 12,ModI
same,stability of the crystalline form (conclusion from tables 4 and 5),long-term and accelerated stability,thermodynamically stable form
